Common to all, as to format: cell-based
Test [1] has as its system Jurkat T cells. Kind of test: Radio frequency monitoring device measurement at 64 MHz in Jurkat T cell suspensions (Example 5). Conditions: for net change in radio frequency magnitude (plain medium subtracted as background): 64 MHz. The procedure: The degree of cellular energy metabolism was monitored by radio frequency in Jurkat T cell suspensions to compare to direct intracellular ATP measurement of Example 4. Jurkat T cell suspensions were maintained as in Example 4. A radio frequency monitoring device was placed in the cell culture and monitored at 64 MHz frequency as a function of time. Cells were stimulated by addition of (a) D-glucose (180 mg/dl final concentration in DMEM), (b) 2-deoxy-D-glucose (2DG, 180 mg/dl final concentration in DMEM), (c) D-glucose (180 mg/dl final concentration) and BAY-876 (a glucose transporter 1 inhibitor, 5 μM final concentration), and (d) DMEM with low D-glucose (5.5 mM, 100 mg/dl, ‘plain medium’). All stimulations were conducted with the same volume of liquid.

Test [2] deals with Jurkat T cells. Kind of test: Radio frequency sensor device measurement of cellular energy metabolism in Jurkat T cell suspension (Example 1). Conditions: for radio frequency peak in magnitude at 64 MHz: final concentration 200 mg/dl in low D-glucose DMEM, about 8 h. The procedure:
Jurkat T cells were obtained from American Type Culture Collection (ATCC) (#TIB-152) and maintained in high D-Glucose Dulbecco's Modified Eagle Medium (DMEM) (THERMO FISHER SCIENTIFIC INC., #10565042, 17.5 mM/315 mg/dl D-glucose) supplemented with 10% fetal bovine serum (FBS, THERMO FISHER SCIENTIFIC INC., #16140071), penicillin/streptomycin (Pen/Strep), beta-Mercaptoethanol (b-ME) in a 37° C. humidified incubator, 5% CO2. At time point 0:00 (hr.: min.), Jurkat T cells (3×10^9) were suspended in three separate solutions of low D-glucose DMEM (THERMO FISHER SCIENTIFIC INC., #10565042, 5.5 mM (100 mg/dl D-glucose) supplemented with fetal bovine serum (10% v/v, THERMO FISHER SCIENTIFIC INC. #16140071), penicillin/streptomycin (Pen/Strep), beta-mercaptoethanol (20 ml of media, 5×10^7 cells per mL each) in tissue culture dishes (10 cm). The cell suspension was placed in an incubator at 37° C. at maximum humidity, carbon dioxide concentration of 5%. Cells were mixed continuously on an orbital shaker (60 rpm). Following 60 minutes of incubation for equilibration, a sensor device of this disclosure was placed in each solution. To the resulting solutions were added 200 μl of media containing 100× D-glucose (e.g., to a final concentration of 200 mg/dl), control media (identical media, but containing low D-glucose (5.5 mM, 100 mg/dl)), and media containing 100× 2-deoxy-D-glucose (identical media, but replacing D-glucose with 2-deoxy-D-glucose at a final concentration of e.g., 200 mg/dl). The radio frequency was detected at 64MHz with the sensor device over the course of approximately 8 h.

For test [3], the system named is Jurkat T cells. Kind of test: Luciferase-based assay of intracellular ATP concentration (CELLTITER-GLO 2.0). Conditions: D-glucose 15.5 mM (280 mg/dl final) versus low D-glucose 5.5 mM. How it is done: Intracellular ATP concentrations were assessed using a luciferase-based assay to determine the rate of ATP production following addition of glucose. Jurkat T cells (1×10^7 cells per well in low D-glucose DMEM (100 μl, 5.5 mM, 100 mg/dl D-glucose)) were aliquoted into flat-bottom 96-well plates. Cells were stimulated with DMEM either containing D-glucose (15.5 mM, 280 mg/dl final solution) or low D-glucose (5.5 mM, 100 mg/dl), an effective difference of 10 mM (180 mg/dl) glucose, at time point 0 min. Cells were quantitatively removed from the incubation plate. An aliquot of cell suspension (50 μl) was transferred onto frozen CELLTITER-GLO® 2.0 (PROMEGA CO.) assay reagent on dry ice. The resulting mixture was thawed, and the ATP concentration measured via light emission in a 96-well plate-compatible luminometer. The resulting curve of luciferase activity in relative luminescence units (RLUs) over time (min. following stimulation) is shown in FIG. 7. […] Glucose transport is rapid as indicated by the rapid increase of ATP concentration following addition of D-glucose.
For orientation: ATP-based viability assays read luminescence as a measure of living cells.

[4] abbreviates: 180 mg/dl final concentration in DMEM.

The structures appear in SMILES notation.

In the case of `Cc1c(NC(=O)c2cc(C(N)=O)nc3cc(F)ccc23)c(C(F)(F)F)nn1Cc1ccc(C#N)cc1` [BAY-876], the “magnitude at 64 MHz over time (curve shape)” value (from here on “magnitude at 64 MHz over time”) in test [1] (BAY-876 5 μM final with D-glucose 180 mg/dl final) was “a smooth decline becoming linear over time”.
Take `O=C[C@H](O)[C@@H](O)[C@H](O)[C@H](O)CO` [D-glucose]: the “time of apex of radio frequency peak” value in test [2] (D-glucose 200 mg/dl final) is listed as “approximately 4 h”. For the same compound, the “radio frequency peak in magnitude at 64 MHz” value in test [2] is reported as “a broad peak was observed”. In test [3], the “difference in luminescence (net ATP concentration) over time” value is “an increase in net ATP concentration followed by a slower decrease in net ATP concentration”. In test [1] (setting [4]), the “magnitude at 64 MHz over time” value is “both a peak shortly after addition of stimulus, and a more gradual decline”; the “net change in radio frequency magnitude (plain medium subtracted as background)” value is “an initial net increase in magnitude followed by a slow net decrease”.
As to `O=CC[C@@H](O)[C@H](O)[C@H](O)CO` [2-deoxy-D-glucose], the “radio frequency peak in magnitude at 64 MHz” value in test [2] is reported as “no detectable peak”. Besides, in test [1] (setting [4]), the “magnitude at 64 MHz over time” value is listed as “an initial peak, similar to D-glucose, the magnitude at 64 MHz quickly adopts a similar linear decline” and the “net change in radio frequency magnitude (plain medium subtracted as background)” value was “only an initial net increase”.

Values taken from patent US20260000351A1, “NON-INVASIVE METHODS OF MEASURING THE DEGREE OF CELLULAR ENERGY METABOLISM” (AMAZON TECHNOLOGIES, INC., priority 2023, published 2026).
